Assay results from US7256174B2, “Somatostatin and somatostatin agonists for treating insulin insensitivity and Syndrome X” (Societe de Conseils de Recherches et d'Applications …, priority 1997, dated 2007).
Bridge positions count the residues as written; N and C are the ends. Square brackets hold non-standard residues; d marks the D form. Peptide text beside a SMILES is read from it.

Tests used:
[1] = Insulin sensitivity study, oral glucose challenge after chronic treatment; type: in vivo, fatty (fa/fa) Zucker rats; conditions: 3 mg/kg s.c. twice daily, 7 days
Method: Male fatty Zucker rats (Harlan-Olac, Bicester, Oxon, U.K.), which were 15-17 weeks old, were randomly divided into two groups. The animals were house in pairs in a normal 12 hour light:12 hour darkness cycle at 20±2° C. and fed a standard laboratory rat diet (Beekay rat and mouse diet, Bantin & Kingman, Hull, Humberside, U.K.) ad libitum. For the group assigned to receive drug treatment, the rats received BIM-23268C at 3 mg/kg, by subcutaneous injection, twice a day at 10:00 AM and 5:00 PM. The other group, the control group, was treated with a subcutaneous injection of 0.1 ml/100 g of saline twice a day at 10:00 AM and 5:00 PM. […] On the last day of treatment, at 5:00 PM food was removed, and the rats were fasted overnight.
A method for assessing insulin sensitivity is to administer an oral glucose challenge and monitoring the secretion of insulin and disposal of glucose from the blood stream over a 240 min period (Bergman, R. N., et al., Endocrine Review 6:45-86 (1985)). […] 20 μl blood samples were taken from tail vein (Abdel-Halim, S. M., et al., Diabetes 43:281-288 (1994)) at −60 min, −30 min, 0 min, 30 min, 60 min, 90 min, 120 min, and 240 min.
The 20 μl samples were taken into 380 μl of hemolysis reagents (Sigma, Poole, Dorset, UK) containing 50 mg/liter of digitonin (Cat# D-1407) and 100 mg/liter of Maleimide (M-3766). From this, 100 μl of the hemolysed blood sample was added to 0.9 ml of Tinder reagent (Sigma Enzymatic calorimetric assay for blood glucose, Cat# 315-100, Sigma Chemical Co. Ltd, Poole, Dorset, UK). Blood glucose was determined according to vendor's recommendation at 505 nm.
Insulin was measured by the conventional radioimmunoassay method as described (Dunmore, S., & Beloff-Chain, A., J Endocrinol. 92:15-21 (1982)). Samples were assayed in triplicates with a 1:30000 dilution of an insulin antiserum (from guinea pig)raised in the laboratory (Dunmore, S. J., et al., J. Endocrinol. 137:375-381 (1993), and using ^125I-labelled bovine insulin, iodinated by the chloramine T method (Sambrook, et al., Molecular Cloning—A Laboratory Manual, Ed. 2., Cold Spring Harbor Laboratory Press, 1989). Rat insulin (2000U/0.1 ml, Novo Nordisk Laboratories, Basingstoke, Hants, U.K.) was used as a standard in the assay. The standards and samples were diluted in assay buffer containing NaH2PO4 5.7 g/L, bovine serum albumin (Sigma A4378, Sigma Chemical Co. Ltd., Poole, Dorset, UK) 5.0 g/L, NaN3 1.0 g/L buffered to pH 7.4). Antibody-bound insulin was separated on from free insulin by the addition of a second antibody (donkey anti-guinea pig Ig) coated on cellulose, Sac-Cel (IDS, Boldon, Tyne & Wear, UK). The antibody-bound insulin precipitate was separated by centrifugation. Counts bound were measured on an LKB Rackgamma solid scintillation counter.

[2] = Weight loss study, chronic (6 day) treatment; conditions: 3 mg/kg s.c. twice a day
[3] = Lipidemia study, plasma glycerol and triglycerides; type: in vivo, Obese (fa/fa) Zucker rats
Method: Obese (fa/fa) Zucker rats were treated as in example 1 above. On the last day of treatment (day 6), food was removed at 5:00 p.m., and the rats were fasted overnight. At 9:00 a.m. the next day, the animals were subjected to a glucose challenge, given as 0.8 gram/kg of glucose orally. Periodic 400 μl of blood samples were taken from the tail vein (Peterson, R. G., ILAR News, 32:16-19 (1990)) 60 min. and 30 min. before and at 30, 60, 90, and 120 min. after the administration of the glucose challenge (0.8 gram/kg orally). Aprotinin (Traysylol, Bayer UK, Hayward's Health, W. Sussex, U.K.) and heparin (Sigma Chemical Co., Poole, Dorset, U.K.) were added to the blood samples to a final concentration of 400 KIU/ml and 100 units/ml, respectively. Plasma fractions were prepared from these samples by centrifugation at 4000×G in a microfuge, for the estimation of triglycerides and glycerol. Samples were then stored at −80° C. until assayed.
Plasma glycerol and triglycerides were determined using the Sigma Enzymatic (Tinder) calorimetric assay kit (Cat #337-B, Sigma Chemical Co., Poole, Dorset, U.K.) and measuring absorbance at 540 nm in a spectrophotometer.

[4] = 0.8 g/kg oral glucose challenge
[5] = 3 mg/kg s.c. twice a day, six days, samples 30 and 60 minutes before oral glucose challenge
[6] = throughout the 2-hour test period after oral glucose challenge

## C[C@@H](O)[C@@H]1NC(=O)[C@H](CCCCN)NC(=O)[C@@H](Cc2c[nH]c3ccccc23)NC(=O)[C@H](Cc2ccccc2)NC(=O)[C@H](Cc2ccccc2)NC(=O)[C@@H](N)CSSC[C@@H](C(N)=O)NC(=O)[C@H](Cc2ccccc2)NC1=O [BIM-23268, H-Cys-Phe-Phe-D-Trp-Lys-Thr-Phe-Cys-NH2] (H-CFF[dW]KTFC-NH2; disulfide 1-8)
[1]
  hyperinsulinemia: suppressing
  insulin-sensitivity: improvement
[1]; [4]
  glucose tolerance: did not show an impairment
  plasma glucose profile versus untreated group: not significantly different
[1]; 0.8 g/kg oral glucose challenge, vs saline control
  glucose stimulated insulin secretion to the glucose challenge: significant suppression
[2]; six days
  body weight gain versus control: lower
  toxic effect / appearance of treated group: appeared healthy
[2]; six days (control 26.0)
  average food consumption: 25.9 g/rat/day
[2]; six days, vs control
  difference in amount of food consumed over the entire treatment period: no difference
[2]; after six days (control 414.09 to 418.89)
  group mean weight after six days: 413.6
[2]; start of trial
  group mean weight at the start of the trial: 413.6
[3]; [5]
  plasma glycerol: significantly lowered
  plasma triglycerides: significantly lowered
[3]; 6-day treatment at 3 mg/kg s.c. twice a day
  reducing hypertriglyceridemia: effective
[3]; [6]
  plasma glycerol: significantly lower
  plasma triglycerides: significantly lower
